In ChEMBL document CHEMBL1201862, “PubChem BioAssay data set” (2004):
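Grown in 96-well plates, cells were treated for 48 hours with each compound at five concentrations. Insufficient inhibition: endpoint recorded as highest concentration tested. GI50 = concentration required for 50% inhibition of growth.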 Activity calls are given as the source filed them. Cut-off read from the data, not from the text of the source: active = GI50 up to about 1.1 µM and inactive = higher.

Key:
Assay in all cases: inhibition of tumour cell growth, NCI panel, 48 h
[1] = test system: MDA-MB-231
[2] = test system: SK-MEL-5
[3] = test system: NCI-H522
[4] = test system: U-251
[5] = test system: UACC-62
[6] = test system: TK-10
[7] = test system: UACC-257
[8] = test system: HCT-116
[9] = test system: SNB-19
[10] = test system: MOLT-4
[11] = test system: 786-0
[12] = test system: NCI-H226
[13] = test system: UO-31
[14] = test system: HCC 2998
[15] = test system: SF-539
[16] = test system: OVCAR-4
[17] = test system: HCT-15
[18] = test system: RXF 393
[19] = test system: T47D
[20] = test system: IGROV-1
[21] = test system: OVCAR-3
[22] = test system: MDA-N
[23] = test system: SK-OV-3
[24] = test system: SN12C
[25] = test system: A549
[26] = test system: CAKI-1
[27] = test system: K562
[28] = test system: HT-29
[29] = test system: NCI-H460
[30] = test system: HOP-62
[31] = test system: SNB-75
[32] = test system: ACHN
[33] = test system: SF-295
[34] = test system: PC-3
[35] = test system: NCI-H23
[36] = test system: OVCAR-5
[37] = test system: Malme-3M
[38] = test system: M14
[39] = test system: SW-620
[40] = test system: NCI/ADR-RES
[41] = test system: BT-549
[42] = test system: EKVX
[43] = test system: MDA-MB-435
[44] = test system: RPMI-8226
[45] = test system: SK-MEL-28
[46] = test system: SK-MEL-2
[47] = test system: Hs-578T
[48] = test system: SF-268
[49] = test system: SR
[50] = test system: OVCAR-8
[51] = test system: LOX IMVI
[52] = test system: COLO 205
[53] = test system: KM12
[54] = test system: CCRF-CEM
[55] = test system: MCF7
[56] = test system: HOP-92
[57] = test system: HL-60
[58] = test system: A498
[59] = test system: DU-145

C(=N\CCCN1CCN(CCC/N=C/c2cccc3ccccc23)CC1)/c1cccc2ccccc12
GI50 [1]: > 100 µM (inactive)
GI50 [2]: > 10 µM (inactive)
GI50 [3]: > 100 µM (inactive)
GI50 [4]: 36.2 µM (inactive)
GI50 [5]: 84.7 µM (inactive)
GI50 [6]: 72.1 µM (inactive)
GI50 [7]: > 100 µM (inactive)
GI50 [8]: 27.7 µM (inactive)
GI50 [9]: 60.7 µM (inactive)
GI50 [10]: 39.4 µM (inactive)
GI50 [11]: > 100 µM (inactive)
GI50 [12]: 48.6 µM (inactive)
GI50 [13]: 48.3 µM (inactive)
GI50 [14]: > 100 µM (inactive)
GI50 [15]: > 100 µM (inactive)
GI50 [16]: > 100 µM (inactive)
GI50 [17]: 34.8 µM
GI50 [18]: 10.8 µM (inactive)
GI50 [19]: > 100 µM (inactive)
GI50 [20]: > 100 µM (inactive)
GI50 [21]: > 100 µM (inactive)
GI50 [22]: 20 µM (inactive)
GI50 [23]: > 100 µM (inactive)
GI50 [24]: > 100 µM (inactive)
GI50 [25]: > 100 µM (inactive)
GI50 [26]: > 100 µM (inactive)
GI50 [27]: 26.4 µM (inactive)
GI50 [28]: 45.3 µM (inactive)
GI50 [29]: > 100 µM (inactive)
GI50 [30]: > 100 µM (inactive)
GI50 [31]: 29.9 µM (inactive)
GI50 [32]: > 100 µM (inactive)
GI50 [33]: 57.9 µM (inactive)
GI50 [34]: > 100 µM (inactive)
GI50 [35]: 90.8 µM (inactive)
GI50 [36]: > 100 µM (inactive)
GI50 [37]: > 100 µM (inactive)
GI50 [38]: 8.99 µM (inactive)
GI50 [39]: 64.9 µM (inactive)
GI50 [40]: 38.8 µM (inactive)
GI50 [41]: 22.8 µM (inactive)
GI50 [42]: 71.8 µM (inactive)
GI50 [43]: 14.5 µM (inactive)
GI50 [44]: 36 µM (inactive)
GI50 [45]: 56.4 µM (inactive)
GI50 [46]: > 100 µM (inactive)
GI50 [47]: 18.8 µM (inactive)
GI50 [48]: > 100 µM (inactive)
GI50 [49]: 38 µM (inactive)
GI50 [50]: > 100 µM (inactive)
GI50 [51]: 42.5 µM (inactive)
GI50 [52]: > 100 µM (inactive)
GI50 [53]: > 100 µM (inactive)
GI50 [54]: 52.7 µM (inactive)

C/C(Cl)=N/OC(=O)Nc1ccc(F)c([N+](=O)[O-])c1
GI50 [1]: 17.5 µM (inactive)
GI50 [2]: 14 µM (inactive)
GI50 [3]: 1.81 µM (inactive)
GI50 [4]: 20 µM (inactive)
GI50 [55]: 15.2 µM (inactive)
GI50 [5]: 21.3 µM (inactive)
GI50 [6]: 6.1 µM (inactive)
GI50 [7]: 20.7 µM (inactive)
GI50 [8]: 3.89 µM (inactive)
GI50 [9]: 20.1 µM (inactive)
GI50 [10]: 1.78 µM (inactive)
GI50 [11]: 4 µM (inactive)
GI50 [12]: 26.4 µM (inactive)
GI50 [13]: 8.05 µM (inactive)
GI50 [14]: 37.3 µM (inactive)
GI50 [56]: 5.4 µM (inactive)
GI50 [15]: 33.3 µM (inactive)
GI50 [16]: 7.36 µM (inactive)
GI50 [57]: 1.94 µM (inactive)
GI50 [17]: 5.94 µM
GI50 [18]: 12.1 µM (inactive)
GI50 [20]: 6.97 µM (inactive)
GI50 [21]: 19.2 µM (inactive)
GI50 [22]: 16 µM (inactive)
GI50 [23]: 20.9 µM (inactive)
GI50 [24]: 7.57 µM (inactive)
GI50 [25]: 26.2 µM (inactive)
GI50 [26]: 1.79 µM (inactive)
GI50 [27]: 2.57 µM (inactive)
GI50 [28]: 19.6 µM (inactive)
GI50 [29]: 4.75 µM (inactive)
GI50 [30]: 18.2 µM (inactive)
GI50 [31]: 1.71 µM (inactive)
GI50 [32]: 3.02 µM (inactive)
GI50 [33]: 31.1 µM (inactive)
GI50 [34]: 17.8 µM (inactive)
GI50 [35]: 20 µM (inactive)
GI50 [36]: 24.2 µM (inactive)
GI50 [37]: 2.65 µM (inactive)
GI50 [38]: 19.2 µM (inactive)
GI50 [39]: 3.71 µM (inactive)
GI50 [58]: 19.5 µM (inactive)
GI50 [40]: 30.3 µM (inactive)
GI50 [41]: 14.1 µM (inactive)
GI50 [42]: 16.3 µM (inactive)
GI50 [43]: 14.5 µM (inactive)
GI50 [44]: 2.65 µM (inactive)
GI50 [45]: 17.6 µM (inactive)
GI50 [46]: 17.6 µM (inactive)
GI50 [47]: 0.457 µM (active)
GI50 [48]: 15.4 µM (inactive)
GI50 [49]: 8.57 µM (inactive)
GI50 [50]: 8.91 µM (inactive)
GI50 [51]: 6.68 µM (inactive)
GI50 [52]: 2.34 µM (inactive)
GI50 [53]: 17.1 µM (inactive)
GI50 [59]: 17.3 µM (inactive)
GI50 [54]: 2.13 µM (inactive)

Cn1c2ccccc2n2c3ccccc3c(=S)c(C#N)c12
GI50 [2]: > 100 µM (inactive)
GI50 [3]: > 100 µM (inactive)
GI50 [4]: > 100 µM (inactive)
GI50 [55]: > 100 µM (inactive)
GI50 [5]: > 100 µM (inactive)
GI50 [6]: > 100 µM (inactive)
GI50 [7]: > 100 µM (inactive)
GI50 [8]: > 100 µM (inactive)
GI50 [9]: > 100 µM (inactive)
GI50 [10]: > 100 µM (inactive)
GI50 [11]: 92.3 µM (inactive)
GI50 [12]: > 100 µM (inactive)
GI50 [13]: > 100 µM (inactive)
GI50 [14]: > 100 µM (inactive)
GI50 [15]: > 100 µM (inactive)
GI50 [16]: > 100 µM (inactive)
GI50 [57]: > 100 µM (inactive)
GI50 [17]: > 100 µM
GI50 [18]: > 100 µM (inactive)
GI50 [19]: > 10 µM (inactive)
GI50 [20]: > 100 µM (inactive)
GI50 [21]: > 100 µM (inactive)
GI50 [22]: > 100 µM (inactive)
GI50 [23]: > 100 µM (inactive)
GI50 [25]: > 100 µM (inactive)
GI50 [26]: > 100 µM (inactive)
GI50 [27]: > 100 µM (inactive)
GI50 [28]: > 100 µM (inactive)
GI50 [29]: > 100 µM (inactive)
GI50 [30]: 53.1 µM (inactive)
GI50 [31]: > 100 µM (inactive)
GI50 [32]: > 100 µM (inactive)
GI50 [33]: > 100 µM (inactive)
GI50 [34]: > 100 µM (inactive)
GI50 [35]: > 100 µM (inactive)
GI50 [36]: > 100 µM (inactive)
GI50 [38]: > 100 µM (inactive)
GI50 [39]: > 100 µM (inactive)
GI50 [58]: > 100 µM (inactive)
GI50 [40]: > 100 µM (inactive)
GI50 [41]: > 100 µM (inactive)
GI50 [42]: > 100 µM (inactive)
GI50 [43]: > 100 µM (inactive)
GI50 [44]: > 100 µM (inactive)
GI50 [45]: > 100 µM (inactive)
GI50 [46]: > 100 µM (inactive)
GI50 [47]: > 100 µM (inactive)
GI50 [48]: > 100 µM (inactive)
GI50 [49]: > 100 µM (inactive)
GI50 [50]: > 100 µM (inactive)
GI50 [51]: > 100 µM (inactive)
GI50 [52]: > 10 µM (inactive)
GI50 [53]: > 100 µM (inactive)
GI50 [59]: > 100 µM (inactive)
GI50 [54]: > 100 µM (inactive)
